Assay results from PubChem BioAssay (NCI).
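96-well plates; 48 h exposure; 5 concentrations. Endpoints by linear interpolation between flanking doses. Not reached: highest tested concentration assigned. TGI: total growth inhibition.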

How the values were obtained:
Assay in all cases: inhibition of tumour cell growth, NCI panel, 48 h
SN12C renal = tested on: SN12C renal
ACHN renal = tested on: ACHN renal
RXF 393 renal = tested on: RXF 393 renal
A549 NSCLC = tested on: A549 NSCLC
786-0 renal = tested on: 786-0 renal
SR leukemia = tested on: SR leukemia
OVCAR-5 ovarian = tested on: OVCAR-5 ovarian
SNB-78 CNS = tested on: SNB-78 CNS
NCI-H23 lung = tested on: NCI-H23 lung
HOP-92 NSCLC = tested on: HOP-92 NSCLC
M14 melanoma = tested on: M14 melanoma
M19-MEL melanoma = tested on: M19-MEL melanoma
UACC-62 melanoma = tested on: UACC-62 melanoma
DLD-1 colon = tested on: DLD-1 colon
SF-268 CNS = tested on: SF-268 CNS
UO-31 renal = tested on: UO-31 renal
SF-295 CNS = tested on: SF-295 CNS
TK-10 renal = tested on: TK-10 renal
OVCAR-3 ovarian = tested on: OVCAR-3 ovarian
EKVX NSCLC = tested on: EKVX NSCLC
K-562 leukemia = tested on: K-562 leukemia
HL-60(TB) leukemia = tested on: HL-60(TB) leukemia
HOP-18 NSCLC = tested on: HOP-18 NSCLC
HOP-62 NSCLC = tested on: HOP-62 NSCLC
COLO 205 colon = tested on: COLO 205 colon
MALME-3M melanoma = tested on: MALME-3M melanoma
DMS 273 small cell lung = tested on: DMS 273 small cell lung
SF-539 CNS = tested on: SF-539 CNS
U251 CNS = tested on: U251 CNS
NCI-H522 lung = tested on: NCI-H522 lung
OVCAR-8 ovarian = tested on: OVCAR-8 ovarian
UACC-257 melanoma = tested on: UACC-257 melanoma
HCT-15 colon = tested on: HCT-15 colon
LOX IMVI melanoma = tested on: LOX IMVI melanoma
SNB-19 CNS = tested on: SNB-19 CNS
RXF-631 renal = tested on: RXF-631 renal
SNB-75 CNS = tested on: SNB-75 CNS
NCI-H226 lung = tested on: NCI-H226 lung
KM20L2 colon = tested on: KM20L2 colon
SK-OV-3 ovarian = tested on: SK-OV-3 ovarian
OVCAR-4 ovarian = tested on: OVCAR-4 ovarian
CCRF-CEM leukemia = tested on: CCRF-CEM leukemia
SW-620 colon = tested on: SW-620 colon
IGROV1 ovarian = tested on: IGROV1 ovarian
SK-MEL-5 melanoma = tested on: SK-MEL-5 melanoma
LXFL 529 NSCLC = tested on: LXFL 529 NSCLC
RPMI-8226 leukemia = tested on: RPMI-8226 leukemia
NCI-H460 lung = tested on: NCI-H460 lung
XF 498 CNS = tested on: XF 498 CNS
SK-MEL-2 melanoma = tested on: SK-MEL-2 melanoma
HT29 colon = tested on: HT29 colon
KM12 colon = tested on: KM12 colon
HCT-116 colon = tested on: HCT-116 colon
SK-MEL-28 melanoma = tested on: SK-MEL-28 melanoma
CAKI-1 renal = tested on: CAKI-1 renal
MOLT-4 leukemia = tested on: MOLT-4 leukemia
A498 renal = tested on: A498 renal
DMS 114 small cell lung = tested on: DMS 114 small cell lung
HCC-2998 colon = tested on: HCC-2998 colon

Measured: TGI

COC1(OC)CC2CCCCC2=C(C)N1S(=O)(=O)c1ccccc1 (centres undefined)
not listed: MOLT-4 leukemia | A498 renal | DMS 114 small cell lung | HCC-2998 colon
> 100 µM: all other assays above

COc1ccc(NC(=O)NS(=O)(=O)c2ccc(C)cc2)nn1
not listed: RXF 393 renal | SR leukemia | HCT-116 colon
> 100 µM: all other assays above

N#CC1C(=O)C(=O)N(c2ccccc2)C1=O (centres undefined)
not listed: A549 NSCLC | SR leukemia | DLD-1 colon | HL-60(TB) leukemia | CCRF-CEM leukemia | MOLT-4 leukemia
> 100 µM: all other assays above
